Read-outs that look alike come from different tables or passages of the source.
Tests used:
femoral artery [1] = assay: Comparative assays: femoral vasodilating action (MVD) in nembutal-anesthetized dogs, I.D. route; type: in vivo; set-up: key to MVD (minimum dose inducing a femoral vasodilating action): (g): no vasodilating action per I.D. route; conditions: for minimal effective dose: Canis lupus familiaris, intraduodenal, read-out: MVD (minimum dose inducing in nembutal-anesthetized dogs a femoral vasodilating action); for therapeutical index (MVD/LD50 ratio): MVD I.D. dogs / LD50 I.V. mice
Excerpt: (e) minimum dose inducing in nembutalanesthetized dogs a femoral
vasodilating action (tested products being administered per I.D. route).

in vivo = conditions: mouse, iv, LD-50 I.V. mice
femoral artery [2] = assay: Comparison of salts: femoral artery flow in nembutal-anesthetized dogs, I.A. route; type: in vivo; conditions: Ex 1 at pH 6, Ex 2 and Ex 3 at pH 4, dose 0: 64, 64, 79, average of 5 assays
Experimental: Three dogs anesthetized with nembutal and having an average weight of 12.9 kg are used as control animals vis-a-vis themselves, and are administered per I.A. route in the femoral artery with phenyl-(3-hexamethyleneiminopropyl)-ketone hydrochloride, fumarate and citrate (Ex 1, Code No.: CRL 41 339; Ex 2, Code No.: CRL 41 339A; and respectively Ex 3, code No.: CRL 41 339B), at equimolar doses.

mice [3] = assay: Toxicity in mice, intraperitoneal route; type: in vivo
[4] = test system: nembutal-anesthetized dogs; assay: Cardiovascular study in nembutal-anesthetized dogs, intraduodenal administration (then I.V.); type: in vivo; conditions: for minimal effective dose: Canis lupus familiaris, intraduodenal
Experimental: (§1) The study of the cardiovascular properties has been performed on nembutal-anesthetized dogs, CRL 41 339 being administered intra-duodenallyin solution in physiological saline (bidistilled water containing 9 g/l of NaCl) at pH 7.5 (the maximum concentration of CRL 41 339 used being of 32.4 mg/ml).
(§2) Three dogs (average weight: 14.3 kg), anesthetized with nembutal, receive CRL 41 339 by intraduodenal administration at successive doses of 0.1 mg/kg, 0.5 mg/kg, 1 mg/kg, 2.5 mg/kg, 5 mg/kg and 10 mg/kg, then two of these dogs receive a supplemental dose of CRL 41 339 (10 mg/kg) by intravenous administration.
(§3) The arterial blood pressure, the heart rate, the blood flow through the femoral artery, the blood flow through the vertebral artery and the rectal and cutaneous temperatures are measured.

isoprenaline = assay: Effects of isoprenaline after CRL 41 339 in anesthetized dogs; type: in vivo
Experimental: as §1, §2, §3
with 1 μg/kg of isoprenaline, the diastolic blood pressure changes from 117 mm Hg (i.e. about 1.5×10^4 Pa) to 37 mm Hg (i.e. about 4.9×10^3 Pa) after CRL 41 339, instead of changing from 144 mm Hg (i.e. about 1.9×10^4 Pa) to 36 mm Hg (i.e. about 4.8×10^3 Pa) in the control animals (i.e. anesthetized dogs receiving only isoprenaline), and the heart rate changes from 175 beats/minute to 238 beats/minute after CRL 41 339, while in the control animals said heart rate increases from 188 beats/minute to 253 beats/minute.

noradrenaline = assay: Noradrenaline-induced hypertension after CRL 41 339 in anesthetized dogs; type: in vivo; conditions: for systolic blood pressure with noradrenaline: 2 μg/kg noradrenaline after 19.1 mg/kg I.D. accumulated; for systolic blood pressure before noradrenaline: after 19.1 mg/kg I.D. accumulated
Experimental: as §1, §2, §3
It is also observed that the noradrenaline-induced hypertension is reduced by CRL 41 339 (at an accumulated dose of 19.1 mg/kg I.D.):
with 2 μg/kg of noradrenaline the systolic blood pressure increases from 160 mm Hg (i.e. about 2.1×10^4 Pa) to 253 mm Hg (i.e. about 3.3×10^4 Pa) after administration of CRL 41 339 at an accumulated dose of 19.1 mg/kg I.D., while in the control animals, (anesthetized dogs receiving only noradrenaline) the blood systolic pressure increases from 181 mm Hg (i.e. about 2.4×10^4 Pa) to 301 mm Hg (i.e. about 4×10^4 Pa).

adult human beings = assay: Clinical assays in adult human beings; type: in vivo; conditions: arteritis manifestations and ulcers of arterial or venous origin in lower limbs
Excerpt: In clinical trials, good results were obtained on adult human beings after administration of CRL 41 339 as vasodilating agent, in particular in the treatment of (i) arteritis manifestations in lower limbs, and (ii) ulcers of arterial or venous origin in lower limbs.

[5] = test system: rabbit ear microcirculation; assay: Action on rabbit ear microcirculation; type: in vivo; conditions: gastric route, awakened Half Top rabbits
Experimental: […] in an aqueous solution at pH 6.5 (prepared extemporaneously) is administered by gastric route to Half Top rabbit batches (3 males, average weight: […]; and 3 females, average weight 3.3 kg) under a volume of 2 ml/kg. The very same animals used as control animals against themselves receive distilled water per gastric route, under the very same volume. The following parameters are measured: the terminal arteriole diameter, the terminal veinule diameter, the arteriolar pulsatility, the ear cutaneous temperature, the heart rate and the rectal temperature.

femoral artery [6] = assay: Action on isolated dog vessels: femoral artery; conditions: n=5
Experimental: (§4) Annuli of femoral arteriae and external saphenous veins of nembutal-anesthetized dogs are cut off and placed into aerated (O2 : 96%; CO2 : 4%, by volume) Krebs-Henseleit, kept at 37° C. and subjected to a 0.5 g stretching. These vessels are constricted either with noradrenaline 10^-5 M in the presence of propanolol 10^-6 M, or with KCl 50 mM in the presence of phentolamine 3×10^-6 M. CRL 41 339 is tested at accumulated doses.

external saphenous vein = assay: Action on isolated dog vessels: external saphenous vein; conditions: n=4
Experimental: as §4

[7] = test system: perfused hind quarters of rats; assay: Action on perfused hind quarters of rats; type: in vivo
Solubility in water = type: physicochemical; conditions: white powder, very soluble in water
mice [8] = test system: mice
[9] = 10 mg/kg I.V., supplemental to I.D. doses
[10] = after accumulated dose of 19.1 mg/kg I.D.
[11] = KCl 50 mM with phentolamine 3×10^-6 M
[12] = noradrenaline 10^-5 M with propanolol 10^-6 M
[13] = nembutal-anesthetized, noradrenaline-constricted

For `COc1cc(OC)c(C(=O)CCCN2CCCCCC2)c(OC)c1.Cl` [A-2, (2,4,6-trimethoxyphenyl)-(3-hexamethyleneiminopropyl)-ketone hydrochloride], the minimal effective dose (femoral artery [1]; dogs, I.D. route) was 5 mg/kg, the “therapeutical index (MVD/LD50 ratio)” value (femoral artery [1]) was 0.053 and the LD50 (in vivo) was 96 mg/kg.

For `COc1cc(OC)c(C(=O)CCCN2CCCC2)c(OC)c1.Cl` [A-1, (2,4,6-trimethoxyphenyl)-(3-pyrrolidinopropyl)-ketone hydrochloride], the minimal effective dose (femoral artery [1]; dogs, I.D. route) was 6 mg/kg, the “therapeutical index (MVD/LD50 ratio)” value (femoral artery [1]) was 0.100 and the LD50 (in vivo) was 60 mg/kg.

For `COc1cc(OC)c(C(=O)CCCN2CCCCC2)c(OC)c1` [A-3], the “MVD (minimum dose inducing a femoral vasodilating action)” value (femoral artery [1]; dogs, I.D. route) was “(g)”.

`O=C(CCCN1CCCCCC1)c1ccccc1.O=C(O)/C=C/C(=O)O` [Ex 2, phenyl(3-hexamethyleneiminopropyl)-ketone fumarate] gave a Femoral flow (femoral artery [2]; dose 10^-5 M) of 168 mL/min, a Femoral flow (femoral artery [2]; dose 10^-6 M) of 117 mL/min and a Femoral flow (femoral artery [2]; dose 10^-7 M) of 76 mL/min.

In the case of `Cl.O=C(CCCN1CCCCCC1)c1ccccc1` [Ex 1, phenyl-(3-hexamethyleneiminopropyl)-ketone hydrochloride], the “LD-30 (lethal dose for 30% of the treated animals)” value (mice [3]) is reported as “about 128 mg/kg”, the “LD-100 (minimum lethal dose for all the treated animals)” value (mice [3]) is reported as ≤ 256 mg/kg and the “LD-O (maximum non-lethal dose)” value (mice [3]) is reported as “higher than 64 mg/kg”. For the same compound, the “blood pressure effect of supplemental I.V. dose” value [4, 9] was “hypotension”, the “heart rate effect of supplemental I.V. dose” value [4, 9] was “bradycardia” and the minimal effective dose ([4]; I.D., accumulated dose, read-out: accumulated dose as from which femoral artery flow is highly increased) was 4.1 mg/kg. For the same compound, the minimal effective dose ([4]; I.D., single successive dose, read-out: dose as from which femoral artery flow is highly increased) was 2.5 mg/kg, the blood arterial pressure ([4]; I.D. route) was “does not modify” and the heart beat ([4]; I.D. route) was “does not modify”. For the same compound, the respiration rate ([4]; I.D. route) was “reduces the respiration rate”, the femoral artery flow ([4]; I.D., as from the dose of 2.5 mg/kg (accumulated 4.1 mg/kg)) was “highly increases” and the “diastolic blood pressure with isoprenaline” value (isoprenaline; 1 μg/kg isoprenaline after CRL 41 339 (19.1 mg/kg I.D. accumulated), controls 36) was 37 mm Hg. The “heart rate with isoprenaline” value (isoprenaline; 1 μg/kg isoprenaline after CRL 41 339 (19.1 mg/kg I.D. accumulated), controls 253) was 238 beats/minute, the “diastolic blood pressure with isoprenaline” value (isoprenaline; 1 μg/kg isoprenaline after CRL 41 339 (19.1 mg/kg I.D. accumulated), controls about 4.8×10^3 Pa) was “about 4.9×10^3 Pa” and the “diastolic blood pressure before isoprenaline” value (isoprenaline; after CRL 41 339 (19.1 mg/kg I.D. accumulated), controls 144) was 117 mm Hg. For the same compound, the “heart rate before isoprenaline” value (isoprenaline; after CRL 41 339 (19.1 mg/kg I.D. accumulated), controls 188) was 175 beats/minute, the “diastolic blood pressure before isoprenaline” value (isoprenaline; after CRL 41 339 (19.1 mg/kg I.D. accumulated), controls about 1.9×10^4 Pa) was “about 1.5×10^4 Pa” and the “effects of isoprenaline as regards the diastolic blood pressure” value (isoprenaline; [10]) was “not modified”. For the same compound, the “effects of isoprenaline as regards the heart rate” value (isoprenaline; [10]) was “slightly reduced”, the “systolic blood pressure with noradrenaline” value (noradrenaline; controls 301) was 253 mm Hg and the “systolic blood pressure with noradrenaline” value (noradrenaline; controls about 4×10^4 Pa) was “about 3.3×10^4 Pa”. For the same compound, the noradrenaline-induced hypertension (noradrenaline; accumulated dose of 19.1 mg/kg I.D.) was “reduced”, the “systolic blood pressure before noradrenaline” value (noradrenaline; controls 181) was 160 mm Hg and the “systolic blood pressure before noradrenaline” value (noradrenaline; controls about 2.4×10^4 Pa) was “about 2.1×10^4 Pa”. The “vasodilating activity compared with reference compounds” value (femoral artery [1]; I.D. route, vs LL 1656 and CRL 41 080) was “more active as a vasodilating substance per introduodenal route”, the “therapeutical index (MVD/LD50 ratio)” value (femoral artery [1]) was 0.032 and the “superiority as regards peripheral vasodilating activity” value (femoral artery [1]; vs A-1, A-2, A-3) was “superiority”. The “clinical trials, as vasodilating agent” value (adult human beings) was “good results”, the arteriolar pulsatility [5] was “stronghly increases” and the “arteriolar pulsatility/heart rate ratio” value [5] was “stronghly increases”. For the same compound, the “duration of terminal arteriole dilation” value [5] was 0.5 h, the ear cutaneous temperature [5] was “important and lasting increase” and the heart rate [5] was “without modifying the heart rate”. The terminal arteriole diameter [5] was “moderately dilates”, the veinular diameter [5] was “no action” and the IC50 (femoral artery [6]; Canis lupus familiaris, noradrenaline 10^-5 M with propanolol 10^-6 M, read-out: CI-50 (molar concentration which reduces of 50% the contraction), artery) was 5.9 µM. The “action on femoral artery constriction induced by KCl” value (femoral artery [6]; [11]) was “no action”, the “action on artery constricted by noradrenaline” value (femoral artery [6]; [12]) was “slakening” and the IC50 (external saphenous vein; Canis lupus familiaris, noradrenaline 10^-5 M with propanolol 10^-6 M, read-out: CI-50 (molar concentration which reduces of 50% the contraction), vein) was 130 µM. The “action on external saphenous vein constriction induced by KCl” value (external saphenous vein; [11]) was “no action”, the “action on vein constricted by noradrenaline” value (external saphenous vein; [12]) was “slakening” and the anti-noradrenaline activity ([7]; believed to be involved in the vasodilating activity) was “important anti-noradrenaline activity”. The “duration of vasodilating effect” value [7, 13] was “increases with the dose”, the “vasodilating effect on hind quarters of rats” value [7, 13] was “important vasodilating effect” and the Femoral flow (femoral artery [2]; dose 10^-5 M) was 166 mL/min. The Femoral flow (femoral artery [2]; dose 10^-6 M) was 117 mL/min, the Femoral flow (femoral artery [2]; dose 10^-7 M) was 83 mL/min and the solubility (Solubility in water) was 100 mg/mL. The “superiority as regards toxicity” value (mice [8]; mouse, in vivo) was “superiority”, the “toxicity compared with reference compounds” value (mice [8]; vs LL 1656 and CRL 41 080) was “less toxic” and the mutagenic activity (Salmonella typhimurium) was “devoid of mutagenic activity”. The LD50 (in vivo) was 128 mg/kg.

`O=C(CCCN1CCCCCC1)c1ccccc1.O=C(O)CC(O)(CC(=O)O)C(=O)O` [Ex 3, phenyl(3-hexamethyleneiminopropyl)-ketone citrate] gave a Femoral flow (femoral artery [2]; dose 10^-5 M) of 197 mL/min, a Femoral flow (femoral artery [2]; dose 10^-6 M) of 127 mL/min and a Femoral flow (femoral artery [2]; dose 10^-7 M) of 90 mL/min.

From patent US4758560A, “Phenyl-(3-hexamethyleneiminopropyl)-ketone” (priority 1985, dated 1988)
